In patent US8987284B2, “Phosphorus containing quinazoline compounds and methods of use” (Newgen Therapeutics, Inc., priority 2009, dated 2015):

Assays:
[1] = biological target: T1, EGFR kinase (Homo sapiens, UniProt P00533); experiment: Kinase assay for EGFR (TR-FRET LanthaScreen); assay type: biochemical; conditions: % inhibition at 100 nM or IC50 (nM)
T1 construct: purchased Invitrogen PV3872
Protocol: The extent to which the compounds of the present invention modulate EGFR kinase activity can be determined using time-resolved Fret (TR-FRET) assay (LanthaScreen® kinase activity assay, from Invitrogen). The assay employs EGFR kinase (PV3872, Invitrogen), Tb-Py20 antibody (PV3552, Invitrogen) and fluorescein-poly GT (PV3610, In vitrogen)
The assay is performed in a Black 384-well plate (available from Corning). EGFR kinase (is diluted in TR-FRET Dilution Buffer (PV3189, InVitrogen) at concentration of 0.4 ug/ml as stock solution, and then 2-fold serial diluted. Addition of 1 mM ATP initiated the reaction, and the reaction is incubated for 1 h reaction at room temperature. 10 μL of the Tb-antibody (from Invitrogen)+EDTA (from Invitrogen) solution prepared was added to each well of the assay plate and mix briefly, and incubated for 30 min. The signal is monitored by using M5 microplate reader (Ex=332 nm, Em=488 nm and 518 nm). Each compound is tested in duplicate wells. EGFR without compound is used as control. Staurosporine (available from Sigma) is used as positive control compound. Inhibition was calculated as percentage of the EGFR activity (without compound)

[2] = system: BT474 cells; experiment: Cell proliferation inhibition assay for BT474 (CCK-8); assay type: cell-based; conditions: Homo sapiens, BT-474; 72 h, 8 points
Protocol: Human breast cancer BT474 cells was cultured in low glucose DMEM (Life Technologies 12320-032) containing 10% fetal bovine serum (FBS) at 37° C. in a humidified 10% CO2, 90% air incubator. Cells were harvested using trypsin/EDTA, counted using a haemocytometer, and plated 10000 cell/well in a 96-well clear tissue culture plate. The cells were incubated for 24 h at 37° C. to allow adherence. A serials of concentrations of each compound (ranging from 30 uM to […], 5-fold dilution) in 96-well plate, and incubated for 72 h. Each concentration was tested in triplicate wells. During the cell proliferation assay, BT474 cells were cultured in low-glucose DMEM containing 5% FBS, 50 ug/ml gentamicin, and 0.3% v/v DMSO. The culture medium was removed via aspiration, and the cell viability was detected by using CCK-8 cell proliferation kit.

T1 sequence (P00533 25-1210): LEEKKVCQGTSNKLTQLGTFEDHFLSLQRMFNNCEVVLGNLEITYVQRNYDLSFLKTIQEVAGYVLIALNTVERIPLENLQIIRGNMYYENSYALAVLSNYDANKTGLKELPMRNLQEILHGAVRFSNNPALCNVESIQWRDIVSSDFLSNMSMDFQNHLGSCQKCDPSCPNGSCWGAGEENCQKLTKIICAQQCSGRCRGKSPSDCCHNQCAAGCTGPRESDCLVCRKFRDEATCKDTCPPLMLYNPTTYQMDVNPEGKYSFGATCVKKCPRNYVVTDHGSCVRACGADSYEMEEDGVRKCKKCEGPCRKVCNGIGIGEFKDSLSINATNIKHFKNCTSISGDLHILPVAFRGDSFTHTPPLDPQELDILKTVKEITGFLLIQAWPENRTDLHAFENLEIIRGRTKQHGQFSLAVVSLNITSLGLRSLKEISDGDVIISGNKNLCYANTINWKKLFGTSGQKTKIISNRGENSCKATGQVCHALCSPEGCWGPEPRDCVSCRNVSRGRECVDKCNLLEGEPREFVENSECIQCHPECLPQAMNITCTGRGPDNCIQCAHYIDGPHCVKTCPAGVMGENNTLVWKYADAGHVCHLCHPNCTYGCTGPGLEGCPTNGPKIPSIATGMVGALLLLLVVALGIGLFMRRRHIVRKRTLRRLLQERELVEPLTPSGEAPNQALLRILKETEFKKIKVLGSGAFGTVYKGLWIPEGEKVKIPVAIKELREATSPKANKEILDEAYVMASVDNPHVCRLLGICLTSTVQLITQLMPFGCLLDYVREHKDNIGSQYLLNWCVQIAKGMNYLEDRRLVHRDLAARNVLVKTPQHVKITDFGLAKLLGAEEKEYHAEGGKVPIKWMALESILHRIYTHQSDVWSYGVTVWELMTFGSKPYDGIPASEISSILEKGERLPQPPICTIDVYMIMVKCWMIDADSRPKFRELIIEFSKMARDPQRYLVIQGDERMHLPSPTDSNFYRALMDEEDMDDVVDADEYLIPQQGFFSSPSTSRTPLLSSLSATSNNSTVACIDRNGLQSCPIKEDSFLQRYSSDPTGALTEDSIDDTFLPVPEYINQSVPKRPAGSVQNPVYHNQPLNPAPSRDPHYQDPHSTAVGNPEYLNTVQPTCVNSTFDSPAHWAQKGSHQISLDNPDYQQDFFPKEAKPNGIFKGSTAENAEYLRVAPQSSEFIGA

Row | Structure (SMILES) | EGFR inhibition inhibit % at 100 nM or IC50 (nM) [1] | IC50 [2]
1 | CCN(CCP(C)(C)=O)Cc1ccc(-c2ccc3ncnc(Nc4ccc5c(cnn5Cc5cccc(F)c5)c4)c3c2)o1 [Example 26] | ++ (>50% inhibition at 100 nM, or IC50 <100 nM for EGFR or ErbB2 kinases) | 100 to 1000 nM
2 | CC1(C)COP(=O)(CCNCc2ccc(-c3ccc4ncnc(Nc5ccc(OCc6cccc(F)c6)c(Cl)c5)c4c3)o2)OC1 [Example 7, N-(3-chloro-4-(3-fluorobenzyloxy)phenyl)-6-(5-((2-(5,5-dimethyl-1,3,2-dioxaphosphino-2-yl)ethylamino)methyl)furan-2-yl)quinazolin-4-amine] | ++ (>50% inhibition at 100 nM, or IC50 <100 nM for EGFR or ErbB2 kinases) | –
3 | CP1(=O)CCN(Cc2ccc(-c3ccc4ncnc(Nc5ccc(OCc6ccccn6)c(Cl)c5)c4c3)o2)CC1 [Example 8, N-(3-chloro-4-(pyridin-2-ylmethoxy)phenyl)-6-(5-((4-methyl-1,4-azaphosphino-1-yl)methyl)furan-2-yl)quinazolin-4-amine] | ++ (>50% inhibition at 100 nM, or IC50 <100 nM for EGFR or ErbB2 kinases) | < 100 nM
4 | Cc1ccc(Oc2ccc(Nc3ncnc4ccc(-c5ccc(CN6CCP(C)(=O)CC6)o5)cc34)cc2C)cn1 [Example 12] | ++ (>50% inhibition at 100 nM, or IC50 <100 nM for EGFR or ErbB2 kinases) | –
5 | CP(C)(=O)CCN(CCO)Cc1ccc(-c2ccc3ncnc(Nc4ccc5c(cnn5Cc5cccc(F)c5)c4)c3c2)o1 [Example 27, 2-(N-((5-(4-(1-(3-fluorobenzyl)-1H-indazol-5-ylamino)quinazolin-6-yl)furan-2-yl)methyl)-N-(2-(dimethylphosphinoyl)ethyl)amino)ethanol] | ++ (>50% inhibition at 100 nM, or IC50 <100 nM for EGFR or ErbB2 kinases) | < 100 nM
6 | C[C@@H](Nc1ncnc2ccc(-c3ccc(CN4CCP(C)(=O)CC4)o3)cc12)c1ccccc1 [Example 18, (R)-6-(5-((4-methyl-1,4-azaphosphino-1-yl)methyl)furan-2-yl)-N-(1-phenylethyl)quinazolin-4-amine] | ++ (>50% inhibition at 100 nM, or IC50 <100 nM for EGFR or ErbB2 kinases) | –
7 | CP(C)(=O)CN1CCN(Cc2ccc(-c3ccc4ncnc(Nc5ccc(OCc6cccc(F)c6)c(Cl)c5)c4c3)o2)CC1 [Example 13, N-(4-(3-fluorobenzyloxy)-3-chlorophenyl)-6-(5-((4-((dimethylphosphinoyl)-methyl)piperazin-1-yl)methyl)furan-2-yl)quinazolin-4-amine] | ++ (>50% inhibition at 100 nM, or IC50 <100 nM for EGFR or ErbB2 kinases) | 100 to 1000 nM
8 | CP1(=O)CCN(Cc2ccc(-c3ccc4ncnc(Nc5ccc(OCc6cccc(F)c6)c(Br)c5)c4c3)o2)CC1 [Example 14, N-(4-(3-fluorobenzyloxy)-3-bromophenyl)-6-(5-((4-methyl-1,4-azaphosphino-1-yl)methyl)furan-2-yl)quinazolin-4-amine] | ++ (>50% inhibition at 100 nM, or IC50 <100 nM for EGFR or ErbB2 kinases) | –
9 | CP(C)(=O)CCNCc1ccc(-c2ccc3ncnc(Nc4ccc(OCc5cccc(F)c5)c(Cl)c4)c3c2)o1 [Example 2, 6-(5-((2-(dimethylphosphino)ethylaminoyl)methyl)furan-2-yl)-N-(4-(3-fluorobenzyloxy)-3-chlorophenyl)quinazolin-4-amine] | ++ (>50% inhibition at 100 nM, or IC50 <100 nM for EGFR or ErbB2 kinases) | < 100 nM
10 | Cc1cccc(COc2ccc(Nc3ncnc4ccc(-c5ccc(CN6CCP(C)(=O)CC6)o5)cc34)cc2Cl)n1 [Example 9, N-(3-chloro-4-((6-methylpyridin-2-yl)methoxy)phenyl)-6-(5-((4-methyl-1,4-azaphosphino-1-yl)methyl)furan-2-yl)quinazolin-4-amine] | + (between 20% to 50% inhibition at 100 nM, or IC50 between 100 and 1000 nM) | 100 to 1000 nM
11 | CP1(=O)CCN(Cc2ccc(-c3ccc4ncnc(Nc5cccc(Cl)c5F)c4c3)o2)CC1 [Example 19, N-(3-chloro-2-fluorophenyl)-6-(5-((4-methyl-1,4-azaphosphino-1-yl)methyl)furan-2-yl)quinazolin-4-amine] | ++ (>50% inhibition at 100 nM, or IC50 <100 nM for EGFR or ErbB2 kinases) | –
12 | CP1(=O)CCN(Cc2ccc(-c3ccc4ncnc(Nc5ccc6c(cnn6Cc6cccc(F)c6)c5)c4c3)o2)CC1 [Example 16, N-(1-(3-fluorobenzyl)-1H-indazol-5-yl)-6-(5-((4-methyl-1,4-azaphosphino-1-yl)methyl)furan-2-yl)quinazolin-4-amine] | ++ (>50% inhibition at 100 nM, or IC50 <100 nM for EGFR or ErbB2 kinases) | –
13 | CP(C)(=O)CNCc1ccc(-c2ccc3ncnc(Nc4ccc(OCc5cccc(F)c5)c(Cl)c4)c3c2)o1 [Example 3, 6-(5-(((dimethylphosphinoyl)methylamino)methyl)furan-2-yl)-N-(4-(3-fluorobenzyloxy)-3-chlorophenyl)quinazolin-4-amine] | ++ (>50% inhibition at 100 nM, or IC50 <100 nM for EGFR or ErbB2 kinases) | 100 to 1000 nM
14 | CP1(=O)CCN(Cc2ccc(-c3ccc4ncnc(Nc5ccc(Br)c(Cl)c5F)c4c3)o2)CC1 [Example 21, N-(4-Bromo-3-chloro-2-fluorophenyl)-6-(5-((4-methyl-1,4-azaphosphino-1-yl)methyl)furan-2-yl)quinazolin-4-amine] | ++ (>50% inhibition at 100 nM, or IC50 <100 nM for EGFR or ErbB2 kinases) | –
15 | CP1(=O)CCN(Cc2ccc(-c3ccc4ncnc(Nc5ccc(Br)cc5F)c4c3)o2)CC1 [Example 20, N-(4-Bromo-2-fluorophenyl)-6-(5-((4-methyl-1,4-azaphosphino-1-yl)methyl)furan-2-yl)quinazolin-4-amine] | + (between 20% to 50% inhibition at 100 nM, or IC50 between 100 and 1000 nM) | –
16 | COP(=O)(CCNCc1ccc(-c2ccc3ncnc(Nc4ccc(OCc5cccc(F)c5)c(Cl)c4)c3c2)o1)OC [Example 6, dimethyl 2-((5-(4-(3-chloro-4-(3-fluorobenzyloxy)phenylamino)quinazolin-6-yl)furan-2-yl)methylamino)ethylphosphonate] | ++ (>50% inhibition at 100 nM, or IC50 <100 nM for EGFR or ErbB2 kinases) | –
17 | CP1(=O)CCN(Cc2ccc(-c3ccc4ncnc(Nc5ccc(OCc6cnccn6)c(Cl)c5)c4c3)o2)CC1 [Example 22, N-(3-chloro-4-(pyrazin-2-ylmethoxy)phenyl)-6-(5-((4-methyl-1,4-azaphosphino-1-yl)methyl)furan-2-yl)quinazolin-4-amine] | ++ (>50% inhibition at 100 nM, or IC50 <100 nM for EGFR or ErbB2 kinases) | –
18 | CP1(=O)CCN(CC#Cc2ccc3ncnc(Nc4ccc5c(cnn5Cc5cccc(F)c5)c4)c3c2)CC1 [Example 28, N-(1-(3-fluorobenzyl)-1H-indazol-5-yl)-6-(3-(4-methyl-1,4-azaphosphino-1-yl)prop-1-ynyl)quinazolin-4-amine] | ++ (>50% inhibition at 100 nM, or IC50 <100 nM for EGFR or ErbB2 kinases) | 100 to 1000 nM
19 | CCOP1(=O)CCN(Cc2ccc(-c3ccc4ncnc(Nc5ccc(OCc6cccc(F)c6)c(Cl)c5)c4c3)o2)CC1 [Example 17, N-(3-chloro-4-(3-fluorobenzyloxy)phenyl)-6-(5-((4-ethoxy-1,4-azaphosphino-1-yl)methyl)furan-2-yl)quinazolin-4-amine] | ++ (>50% inhibition at 100 nM, or IC50 <100 nM for EGFR or ErbB2 kinases) | < 100 nM
20 | CP(C)(=O)CCNCC#Cc1ccc2ncnc(Nc3ccc(OCc4cccc(F)c4)c(Cl)c3)c2c1 [Example 10, 6-(3-(2-(dimethylphosphinoyl)ethylamino)prop-1-ynyl)-N-(4-(3-fluorobenzyloxy)-3-chlorophenyl)quinazolin-4-amine] | ++ (>50% inhibition at 100 nM, or IC50 <100 nM for EGFR or ErbB2 kinases) | –
21 | CP1(=O)CCN(C/C=C/c2ccc3ncnc(Nc4ccc(OCc5cccc(F)c5)c(Cl)c4)c3c2)CC1 [Example 11, N-(4-(3-fluorobenzyloxy)-3-chlorophenyl)-6-((E)-3-(4-methyl-1,4-azaphosphino-1-yl)prop-1-enyl)quinazolin-4-amine] | ++ (>50% inhibition at 100 nM, or IC50 <100 nM for EGFR or ErbB2 kinases) | –
22 | CP1(=O)CCN(CCCc2ccc3ncnc(Nc4ccc(OCc5cccc(F)c5)c(Cl)c4)c3c2)CC1 [Example 5, N-(3-chloro-4-(3-fluorobenzyloxy)phenyl)-6-(3-(4-methyl-1,4-azaphosphino-1-yl)propyl)quinazolin-4-amine] | ++ (>50% inhibition at 100 nM, or IC50 <100 nM for EGFR or ErbB2 kinases) | –
